Reference: PubChem BioAssay AID1963846 (Molecular Pharmacology Branch, DTP, NCI, 2024)

Tested on: 454973-116-R2-J3-PDC complex spheroid viability
Assay: Anticancer human tumor 454973-116-R2-J3-PDC patient-derived pancreatic carcinoma cell line growth inhibition [POLQ]
Conditions: for IC50: curve of first compound; for viability, T/C: stronger effect = lower value
In short: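 Growth inhibition in 3D: complex spheroids (tumor PDC, HUVEC, MSC) treated with POLQ inhibitor combinations; where Cmax unknown, highest tested concentration 10 microM, except SN-38 at 1 microM.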

[1] = second compound 0.0316 µM, first compound 0.0316 µM
[2] = second compound 0.0316 µM, first compound 0.1 µM
[3] = second compound 0.0316 µM, first compound 0.316 µM
[4] = second compound 0.0316 µM, first compound 1 µM
[5] = second compound 0.0316 µM, first compound 3.16 µM
[6] = second compound 0.0316 µM, first compound 10 µM
[7] = second compound 0.1 µM, first compound 0.0316 µM
[8] = second compound 0.1 µM, first compound 0.1 µM
[9] = second compound 0.1 µM, first compound 0.316 µM
[10] = second compound 0.1 µM, first compound 1 µM
[11] = second compound 0.1 µM, first compound 3.16 µM
[12] = second compound 0.1 µM, first compound 10 µM
[13] = second compound 0.316 µM, first compound 0.0316 µM
[14] = second compound 0.316 µM, first compound 0.1 µM
[15] = second compound 0.316 µM, first compound 0.316 µM
[16] = second compound 0.316 µM, first compound 1 µM
[17] = second compound 0.316 µM, first compound 3.16 µM
[18] = second compound 0.316 µM, first compound 10 µM
[19] = second compound 1 µM, first compound 0.0316 µM
[20] = second compound 1 µM, first compound 0.1 µM
[21] = second compound 1 µM, first compound 0.316 µM
[22] = second compound 1 µM, first compound 1 µM
[23] = second compound 1 µM, first compound 3.16 µM
[24] = second compound 1 µM, first compound 10 µM
[25] = second compound 3.16 µM, first compound 0.0316 µM
[26] = second compound 3.16 µM, first compound 0.1 µM
[27] = second compound 3.16 µM, first compound 0.316 µM
[28] = second compound 3.16 µM, first compound 1 µM
[29] = second compound 3.16 µM, first compound 3.16 µM
[30] = second compound 3.16 µM, first compound 10 µM
[31] = second compound 10 µM, first compound 0.0316 µM
[32] = second compound 10 µM, first compound 0.1 µM
[33] = second compound 10 µM, first compound 0.316 µM
[34] = second compound 10 µM, first compound 1 µM
[35] = second compound 10 µM, first compound 3.16 µM
[36] = second compound 10 µM, first compound 10 µM
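Note: spheroids exposed to drugs for seven days before measurement.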
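Throughout, for viability, T/C: percent viability relative to DMSO vehicle control wells taken as 100%.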

## Nc1ccn(C2OC(CO)C(O)C2(F)F)c(=O)n1 (stereo unspecified) + COC1C(OC(N)=O)C(O)C(Oc2ccc3c(O)c(NC(=O)c4ccc(O)c(CC=C(C)C)c4)c(=O)oc3c2C)OC1(C)C
Second compound 0.0316 µM
  IC50: < 0.0316 µM
Second compound 0.1 µM
  IC50: < 0.0316 µM
Second compound 0.316 µM
  IC50: < 0.0316 µM
Second compound 1 µM
  IC50: < 0.0316 µM
Second compound 3.16 µM
  IC50: < 0.0316 µM
Second compound 10 µM
  IC50: < 0.0316 µM
[1]
  viability, T/C: 14.4%
[2]
  viability, T/C: 8.27%
[3]
  viability, T/C: 11.6%
[4]
  viability, T/C: 11.3%
[5]
  viability, T/C: 11.7%
[6]
  viability, T/C: 12.9%
[7]
  viability, T/C: 12.6%
[8]
  viability, T/C: 11.2%
[9]
  viability, T/C: 10.2%
[10]
  viability, T/C: 11.4%
[11]
  viability, T/C: 11.2%
[12]
  viability, T/C: 10.5%
[13]
  viability, T/C: 10.3%
[14]
  viability, T/C: 9.75%
[15]
  viability, T/C: 10.9%
[16]
  viability, T/C: 11%
[17]
  viability, T/C: 15.1%
[18]
  viability, T/C: 10.2%
[19]
  viability, T/C: 12%
[20]
  viability, T/C: 11.9%
[21]
  viability, T/C: 13.1%
[22]
  viability, T/C: 13.4%
[23]
  viability, T/C: 11.2%
[24]
  viability, T/C: 14.5%
[25]
  viability, T/C: 12.2%
[26]
  viability, T/C: 15.2%
[27]
  viability, T/C: 11.4%
[28]
  viability, T/C: 10.9%
[29]
  viability, T/C: 11%
[30]
  viability, T/C: 11.1%
[31]
  viability, T/C: 13.2%
[32]
  viability, T/C: 10.8%
[33]
  viability, T/C: 12.5%
[34]
  viability, T/C: 12.4%
[35]
  viability, T/C: 11.9%
[36]
  viability, T/C: 12%

## CC1COCCN1c1cc(C2(S(C)(=N)=O)CC2)nc(-c2ccnc3[nH]ccc23)n1 (stereo unspecified) + Nc1ccc(C#CCN(C(=O)Cc2ncc(C(F)(F)F)cc2C(F)(F)F)c2ccc(F)cc2)nn1
Second compound 0.0316 µM
  IC50: 4.99 µM
Second compound 0.1 µM
  IC50: 5.25 µM
Second compound 0.316 µM
  IC50: 4.65 µM
Second compound 1 µM
  IC50: 4.27 µM
Second compound 3.16 µM
  IC50: 4.31 µM
Second compound 10 µM
  IC50: 3.67 µM
[1]
  viability, T/C: 115%
[2]
  viability, T/C: 104%
[3]
  viability, T/C: 112%
[4]
  viability, T/C: 100%
[5]
  viability, T/C: 68%
[6]
  viability, T/C: 22.5%
[7]
  viability, T/C: 99.5%
[8]
  viability, T/C: 109%
[9]
  viability, T/C: 104%
[10]
  viability, T/C: 97.5%
[11]
  viability, T/C: 70.3%
[12]
  viability, T/C: 24.3%
[13]
  viability, T/C: 109%
[14]
  viability, T/C: 122%
[15]
  viability, T/C: 104%
[16]
  viability, T/C: 95.2%
[17]
  viability, T/C: 64.8%
[18]
  viability, T/C: 20.9%
[19]
  viability, T/C: 110%
[20]
  viability, T/C: 111%
[21]
  viability, T/C: 109%
[22]
  viability, T/C: 109%
[23]
  viability, T/C: 61.6%
[24]
  viability, T/C: 17.3%
[25]
  viability, T/C: 116%
[26]
  viability, T/C: 106%
[27]
  viability, T/C: 108%
[28]
  viability, T/C: 105%
[29]
  viability, T/C: 59.9%
[30]
  viability, T/C: 23.1%
[31]
  viability, T/C: 122%
[32]
  viability, T/C: 114%
[33]
  viability, T/C: 113%
[34]
  viability, T/C: 111%
[35]
  viability, T/C: 55%
[36]
  viability, T/C: 15.5%

## CCc1cc2c(N3CCc4c(cc(Cn5ccnc5)cc4-c4cn(C)nc4C(F)(F)F)C3=O)ccnc2c(OC)n1 + Cc1cccc(N(C)C(=O)C2C(O)CCN2c2nc(C)cc(C(F)(F)F)c2C#N)c1
Second compound 0.0316 µM
  IC50: > 10 µM
Second compound 0.1 µM
  IC50: > 10 µM
Second compound 0.316 µM
  IC50: > 10 µM
Second compound 1 µM
  IC50: > 10 µM
Second compound 3.16 µM
  IC50: > 10 µM
Second compound 10 µM
  IC50: > 10 µM
[1]
  viability, T/C: 89.3%
[2]
  viability, T/C: 86.2%
[3]
  viability, T/C: 93.7%
[4]
  viability, T/C: 77.8%
[5]
  viability, T/C: 82.2%
[6]
  viability, T/C: 62%
[7]
  viability, T/C: 102%
[8]
  viability, T/C: 86%
[9]
  viability, T/C: 82%
[10]
  viability, T/C: 85.9%
[11]
  viability, T/C: 69.3%
[12]
  viability, T/C: 62.1%
[13]
  viability, T/C: 94%
[14]
  viability, T/C: 89%
[15]
  viability, T/C: 84.4%
[16]
  viability, T/C: 83.4%
[17]
  viability, T/C: 74%
[18]
  viability, T/C: 61.5%
[19]
  viability, T/C: 95.2%
[20]
  viability, T/C: 85.2%
[21]
  viability, T/C: 96%
[22]
  viability, T/C: 78.4%
[23]
  viability, T/C: 80.8%
[24]
  viability, T/C: 61.7%
[25]
  viability, T/C: 97.8%
[26]
  viability, T/C: 97.8%
[27]
  viability, T/C: 91.2%
[28]
  viability, T/C: 74%
[29]
  viability, T/C: 72.2%
[30]
  viability, T/C: 57.3%
[31]
  viability, T/C: 91.3%
[32]
  viability, T/C: 87.5%
[33]
  viability, T/C: 72.1%
[34]
  viability, T/C: 74%
[35]
  viability, T/C: 70.3%
[36]
  viability, T/C: 55.8%
